Laboratory results: paper PMC4686899, “Peptides derived from CXCL8 based on in silico analysis inhibit CXCL8 interactions with its receptor CXCR1” (Scientific Reports, 2015)
Each block holds one molecule with its values, some of them ahead of it. Ends that are not written are not given here.

Experiments:
[1] = system: THP-1 transmigration across CXCL8-stimulated HMEC-1; assay: CXCL8-induced monocyte transendothelial migration across HMEC-1 (Transwell); type: cell-based, human; conditions: 25 ng/ml CXCL8, 18 h, vs absence of CXCL8
Protocol: (§1) Human micro-vascular endothelial cell-1 (HMEC-1, from American Type Culture Collection Manassas, USA) was maintained in MCDB 131 medium (Sigma, USA) with L-glutamine and fetal bovine serum (Sigma, USA) to a final concentration of 15%. The medium was supplemented with 500 units/ml penicillin (Biowest, USA), 500 μg/ml streptomycin (Biowest, USA), 10 ng/ml Epidermal Growth Factor (ProSpec, USA) and 1 µg/ml hydrocortisone (Sigma, USA). The THP-1 cells were maintained in the RPMI-1640 medium (Invitrogen, USA) with 10% FBS.
Migration of THP-1 cells across HMEC-1 was performed in a Transwell system (BD Bioscences, USA). Briefly, HMEC-1 cells cultured on transwell (polycarbonate membranes with 8 μm pore sizes) filters were pretreated with peptides for one hour and then stimulated with 25 ng/ml LPS or CXCL8 for 18 hours. THP-1 monocytes (2 × 10^5 cells/well) were added to the upper chamber of transwell inserts containing 50 μl RPMI 1640. LPS (25 ng/ml), CXCL8 peptide (p_wt14) (0.5 and 5 mM), or both combinations were added to the lower chamber to initiate transmigration. After four hours of incubation at 37 °C under 5% CO2, cells that had transmigrated to the lower chamber were harvested and counted using microscopy. All experiments were measured in at least three independent studies, and the data represent the number of transmigrated THP-1 cells.

[2] = system: THP-1 cell adhesion to CXCL8-treated HMEC-1; type: cell-based, human; conditions: 25 ng/ml CXCL8, 18 h, no peptide, vs control
Protocol: Human micro-vascular endothelial cell-1 (HMEC-1, from American Type Culture Collection Manassas, USA) was maintained in MCDB 131 medium (Sigma, USA) with L-glutamine and fetal bovine serum (Sigma, USA) to a final concentration of 15%. The medium was supplemented with 500 units/ml penicillin (Biowest, USA), 500 μg/ml streptomycin (Biowest, USA), 10 ng/ml Epidermal Growth Factor (ProSpec, USA) and 1 µg/ml hydrocortisone (Sigma, USA). The THP-1 cells were maintained in the RPMI-1640 medium (Invitrogen, USA) with 10% FBS. For the assay of THP-1 cell adhesion to HMEC-1 monolayers, confluent HMEC-1 cell monolayers cultured on 24-well plates were pretreated with peptides for one hour and activated with 25 ng/ml LPS (Sigma, USA) or full length CXCL8 (ProSpec, USA) for 18 hours. THP-1 monocytes were suspended in RPMI 1640 and prelabeled with 5 mM Calcein-AM (Invitrogen, USA) for 30 minutes. Before the THP-1 cells were added to HMEC-1, the monolayers were washed twice to remove LPS or CXCL8. Fluorescence labeled monocytes (3 × 10^5 cells/well) were then added to HMEC-1 and incubated for 30 minutes at 37 °C. […] The images of adhered THP-1 cells were photographed (five images per well) under fluorescent microscopy and the number of attached monocytes was counted with the software AlphaImager 2200 (Alpha Innotech, USA).

HMEC-1 = assay: Cell viability assay (WST-1); type: cell-based, human; conditions: various concentrations of p_wt14, 24 and 48 h, WST-1, vs control
Protocol: as §1
To evaluate if the peptide p_wt14 is toxic to the HMEC-1 under resting conditions, 2 × 10^4 cells were dispensed into each well of 96-well micro-plates and incubated for 2 hours for adhesion. After that, the medium containing peptide p_wt14 at various concentrations was added. After 24 and 48 hours of incubation, cells were washed with Hank’s balanced salt solution and the viabilities of HMEC-1were determined by WST-1 assay kit (Roche, USA). Each experiment was performed in quadruplicate and repeated at least three times.

[3] = target: CXCR1p receptor-derived peptide (Homo sapiens), P25024; assay: SPR; conditions: modification not given
CXCR1p receptor-derived peptide (Homo sapiens), P25024, sequence (P25024 9-29): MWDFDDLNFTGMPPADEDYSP

Molecule: CXCL8: chemokine CXCL8 (also known as interleukin-8 or IL-8), full length
- effect of CXCL8 on monocyte transmigration (in words) [1]: considerable increase in monocyte transmigration
- effect of CXCL8 on monocyte adhesion to HMEC-1 (in words) [2]: significant increase in the number of adhered monocytes

Molecule: QCIKTYSKPFHPKF [p_wt14]
- HMEC-1 cell viability (in words) (HMEC-1): no significant cell viability difference

- Kd [3]: 252 µM
B1: CXCL8 peptide p_wt14 14-residue peptide, P10145 (peptide)
chain: IKTYSKPFHPKFIK
